Data: paper PMC12647645, “Structural interactions of BWC0977 with Klebsiella pneumoniae topoisomerase IV and biochemical basis of its broad-spectrum activity” (Communications Biology, 2025)
Converted amounts (≈) assume the structure as drawn. “And” between values parts separate entries of the source, which are not always exact repeats. Equal values may be shown once.

How the values were obtained:
E. coli topoisomerase IV = molecular target: T1, E. coli topoisomerase IV (Escherichia coli, UniProt P0AFI2+P20083); assay: biochemical; format: biochemical; settings: E. coli topo IV, source data Fig 2A
T1 construct: purchased Inspiralis

[1] = molecular target: S. aureus topoisomerase IV (Staphylococcus aureus, UniProt P0C1S7+P0C1U9); assay: biochemical; settings: source data Fig 2C; for Topo IV decatenation inhibition response: S. aureus topo IV
Experimental: (§1) Assays with P. aeruginosa topoisomerase IV (3 nM) were conducted in a similar buffer but with 50 mM HEPES-KOH (pH 7.9), 100 mM potassium glutamate, 6 mM magnesium acetate, 6 mM DTT, 1 mM ATP, 2 mM spermidine, and 50 μg/mL albumin. For S. aureus topoisomerase IV assay, the reactions contained 4 nM enzyme in an assay buffer composed of 50 mM Tris-HCl (pH 7.5), 5 mM MgCl₂, 5 mM DTT, 1.5 mM ATP, 350 mM potassium glutamate, and 0.05 mg/mL albumin. The procedures followed were consistent with those used in the supercoiling assays. Decatenated minicircles were resolved on 0.8% agarose gels, while the kDNA substrate remained in the wells. Gels were stained with 0.8 μg/mL ethidium bromide solution for 10 min, followed by destaining. DNA bands were visualized using a gel documentation system, and compound inhibition analysis was carried out using the same procedures described for the supercoiling assays.

[2] = molecular target: P. aeruginosa topoisomerase IV (Pseudomonas aeruginosa, UniProt Q9HUJ8+Q9HUK1); assay: Topoisomerase IV decatenation assay, P. aeruginosa; format: biochemical; settings: for Topo IV decatenation inhibition response: P. aeruginosa topo IV
Experimental: as §1, with “Topoisomerase IV decatenation reactions were performed using 2.5 nM E. coli enzyme and 60 ng kinetoplast DNA (kDNA) in an assay buffer containing 50 mM HEPES-KOH (pH 7.6), 100 mM potassium glutamate, 10 mM magnesium acetate, 10 mM DTT, 1 mM ATP, and 50 μg/mL albumin. Assays” for “Assays”

A. baumannii = system: A. baumannii; parameters: method as in ref 6 (Hameed P et al., 2024); settings: ref 6 (Hameed P et al., 2024); cited from earlier work
K. pneumoniae = settings: ref 6 (Hameed P et al., 2024); cited from earlier work
P. aeruginosa = system: P. aeruginosa; parameters: method as in ref 6 (Hameed P et al., 2024); settings: ref 6 (Hameed P et al., 2024); cited from earlier work
E. coli ATCC 25922 = assay: In vitro spontaneous resistance frequency; format: cell-based; settings: 4× MIC
Experimental: (§2) Spontaneous resistance frequencies to BWC0977 were evaluated in E. coli ATCC 25922, P. aeruginosa ATCC 27853, and A. baumannii ATCC 19606. Mid-logarithmic phase cultures (~10^9 CFU/mL) were plated onto Luria-Bertani agar containing BWC0977 at 4×, 8×, and 16× the respective MICs. Plates were incubated at 37 °C for 24–36 h, and resistance frequencies were estimated by counting colony-forming units (CFUs) on the drug-containing plates. MICs of the isolated colonies were determined, and the gyrA, gyrB, parC, and parE genes were sequenced to assess for target-site mutations.

A. baumannii ATCC 19606 = assay: In vitro spontaneous resistance frequency; format: cell-based; settings: colonies selected at 4× MIC of the same compound
Experimental: as §2

[3] = molecular target: K. pneumoniae fusion-truncated topoisomerase IV (ParE30-(Glu-Ser)-ParC55) (Klebsiella pneumoniae); assay: crystal structure; ternary complex of ParEC core dimer, 26-bp DNA duplex and BWC0977 (23 uM ParEC core: 28 uM dsDNA: 200 uM BWC0977); sitting-drop vapor diffusion at 20 °C, 17% PEG 3350, 0.1 M sodium formate, 100 mM Bis-Tris propane pH 8.5; 3.05 Å
[4] = molecular target: ParEC core (ParE-ES-ParC fusion, topoisomerase IV) (Klebsiella pneumoniae, UniProt A6TE19 400-631+=ES+A6TE12:1-488, internal_change); assay: X-ray crystallography (3.05 Å); BWC0977 (one molecule intercalated between DNA bases +2 and +3); Crystallization conditions not in material; protein in 20 mM Tris-HCl pH 7.5, 100 mM NaCl, 2 mM TCEP (6 mg/mL); DNA in nuclease-free water; settings: protein: recombinant; tags: C-terminal His6; chain copies: 2; blunt; self-complementary, 2 copies of the strand

T1 sequence (P20083 whole entry): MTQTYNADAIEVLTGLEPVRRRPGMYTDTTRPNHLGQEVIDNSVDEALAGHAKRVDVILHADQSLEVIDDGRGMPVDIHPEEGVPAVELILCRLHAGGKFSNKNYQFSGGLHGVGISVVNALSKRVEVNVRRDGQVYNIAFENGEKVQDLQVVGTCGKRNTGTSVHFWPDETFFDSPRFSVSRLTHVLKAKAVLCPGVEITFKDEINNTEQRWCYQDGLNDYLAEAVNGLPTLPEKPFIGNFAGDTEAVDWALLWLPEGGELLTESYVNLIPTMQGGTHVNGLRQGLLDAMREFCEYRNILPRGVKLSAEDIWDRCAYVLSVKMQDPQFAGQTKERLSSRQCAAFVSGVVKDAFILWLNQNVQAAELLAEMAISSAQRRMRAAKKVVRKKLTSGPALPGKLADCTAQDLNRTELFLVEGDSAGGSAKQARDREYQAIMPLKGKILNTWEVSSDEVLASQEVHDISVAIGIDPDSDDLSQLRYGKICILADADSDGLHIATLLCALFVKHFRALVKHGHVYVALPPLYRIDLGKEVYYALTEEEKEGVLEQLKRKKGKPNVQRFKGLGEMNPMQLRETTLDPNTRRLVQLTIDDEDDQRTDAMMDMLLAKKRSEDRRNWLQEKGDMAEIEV
T1 sequence (P0AFI2 whole entry): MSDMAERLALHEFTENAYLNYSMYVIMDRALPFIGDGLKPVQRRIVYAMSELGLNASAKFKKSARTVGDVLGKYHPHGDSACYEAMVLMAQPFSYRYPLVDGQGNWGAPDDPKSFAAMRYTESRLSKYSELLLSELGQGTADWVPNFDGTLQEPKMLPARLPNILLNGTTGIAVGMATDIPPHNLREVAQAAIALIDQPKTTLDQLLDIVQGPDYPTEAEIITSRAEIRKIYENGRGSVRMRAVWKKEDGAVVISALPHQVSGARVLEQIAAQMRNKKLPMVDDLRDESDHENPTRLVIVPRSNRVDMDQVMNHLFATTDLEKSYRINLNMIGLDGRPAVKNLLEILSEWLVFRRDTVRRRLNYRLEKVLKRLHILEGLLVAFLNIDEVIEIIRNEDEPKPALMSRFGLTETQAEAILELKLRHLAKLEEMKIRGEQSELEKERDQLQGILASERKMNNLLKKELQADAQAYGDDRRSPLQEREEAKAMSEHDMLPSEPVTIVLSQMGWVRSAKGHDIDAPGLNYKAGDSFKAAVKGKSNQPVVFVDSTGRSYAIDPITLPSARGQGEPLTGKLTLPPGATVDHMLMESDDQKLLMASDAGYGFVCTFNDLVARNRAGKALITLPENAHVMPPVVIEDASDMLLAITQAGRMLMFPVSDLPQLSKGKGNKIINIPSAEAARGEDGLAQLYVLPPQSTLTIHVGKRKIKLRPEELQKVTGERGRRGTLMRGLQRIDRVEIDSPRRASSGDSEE

O=C(O)c1cn(C2CC2)c2cc(N3CCNCC3)c(F)cc2c1=O [Ciprofloxacin, reference compound]
Topo IV decatenation inhibition response (E. coli topoisomerase IV; compound 2.34375 μM, 2.34375 µM): 0
Topo IV decatenation inhibition response (E. coli topoisomerase IV; compound 4.6875 μM, 4.6875 µM): 17.91 and 12.76
inhibition at 4.6875 µM (E. coli topoisomerase IV; compound 4.6875 μM, read-out: Topo IV decatenation inhibition response): 12.2%
Topo IV decatenation inhibition response (E. coli topoisomerase IV; compound 9.375 μM, 9.375 µM): 51.63 and 50.29
inhibition at 9.375 µM (E. coli topoisomerase IV; compound 9.375 μM, read-out: Topo IV decatenation inhibition response): 43.7%
Topo IV decatenation inhibition response (E. coli topoisomerase IV; compound 18.75 μM, 18.75 µM): 65.07 and 61.86
inhibition at 18.75 µM (E. coli topoisomerase IV; compound 18.75 μM, read-out: Topo IV decatenation inhibition response): 76.9%
Topo IV decatenation inhibition response (E. coli topoisomerase IV; compound 37.5 μM, 37.5 µM): 82.71 and 68.2 and 60.49
Topo IV decatenation inhibition response (E. coli topoisomerase IV; compound 75 μM, 75 µM): 75.94 and 67.64
inhibition at 75 µM (E. coli topoisomerase IV; compound 75 μM, read-out: Topo IV decatenation inhibition response): 84.2%
Topo IV decatenation inhibition response (E. coli topoisomerase IV; compound 150 μM, 150 µM): 82.92 and 70.66 and 58.85
Topo IV decatenation inhibition response ([1]; compound 0.823 μM, 0.823 µM): 25.54
Topo IV decatenation inhibition response ([1]; compound 2.469 μM, 2.469 µM): 28.07
Topo IV decatenation inhibition response ([1]; compound 7.407 μM, 7.407 µM): 38.66
Topo IV decatenation inhibition response ([1]; compound 22.222 μM, 22.222 µM): 96.26
Topo IV decatenation inhibition response ([1]; compound 66.67 μM, 66.67 µM): 92.59
Topo IV decatenation inhibition response ([1]; compound 200 μM, 200 µM): 98.71
inhibition at 0.823 µM ([1]; read-out: Topo IV decatenation inhibition response, S. aureus topo IV, compound 0.823 μM): 21.1%
inhibition at 2.469 µM ([1]; read-out: Topo IV decatenation inhibition response, S. aureus topo IV, compound 2.469 μM): 31.3%
inhibition at 7.407 µM ([1]; read-out: Topo IV decatenation inhibition response, S. aureus topo IV, compound 7.407 μM): 27.1%
inhibition at 22.222 µM ([1]; read-out: Topo IV decatenation inhibition response, S. aureus topo IV, compound 22.222 μM): 99.1%
inhibition at 66.67 µM ([1]; read-out: Topo IV decatenation inhibition response, S. aureus topo IV, compound 66.67 μM): 97.3%
inhibition at 200 µM ([1]; read-out: Topo IV decatenation inhibition response, S. aureus topo IV, compound 200 μM): 99%
IC50 [2]: 31.2 µM
Topo IV decatenation inhibition response ([2]; compound 0.293 μM, source data Fig 2B, 0.293 µM): 3.42
Topo IV decatenation inhibition response ([2]; compound 9.375 μM, source data Fig 2B, 9.375 µM): 6.96
Topo IV decatenation inhibition response ([2]; compound 37.5 μM, source data Fig 2B, 37.5 µM): 41.68 and 65.61
Topo IV decatenation inhibition response ([2]; compound 75 μM, source data Fig 2B, 75 µM): 53.28 and 77.23
Topo IV decatenation inhibition response ([2]; compound 150 μM, source data Fig 2B, 150 µM): 73.28
inhibition at 0.293 µM ([2]; read-out: Topo IV decatenation inhibition response, P. aeruginosa topo IV, compound 0.293 μM, source data Fig 2B): 3.54%
inhibition at 9.375 µM ([2]; read-out: Topo IV decatenation inhibition response, P. aeruginosa topo IV, compound 9.375 μM, source data Fig 2B): 4.24%
inhibition at 150 µM ([2]; read-out: Topo IV decatenation inhibition response, P. aeruginosa topo IV, compound 150 μM, source data Fig 2B): 58.3%
MIC90 against diverse global isolates (A. baumannii): > 32 µg/mL
MIC90 against diverse global isolates (K. pneumoniae): > 32 µg/mL
MIC90 against diverse global isolates (P. aeruginosa): 16 µg/mL (≈ 48.3 µM)
resistance frequency (E. coli ATCC 25922): 5 × 10^−9
MIC increase of resistant colonies (A. baumannii ATCC 19606): 4- to 32 fold

K. pneumoniae fusion-truncated topoisomerase IV (ParE30-(Glu-Ser)-ParC55) (enzyme)
stoichiometry N [3]: 2

B1: 26-bp palindromic DNA homoduplex (dsDNA)
DNA 1: TTACGTTGTATGATCATACAACGTAA
DNA 2: TTACGTTGTATGATCATACAACGTAA
binding result [4]: binds
